Reference: ChEMBL document CHEMBL6078626, “Recent advancements in the structural exploration of TGR5 agonists for diabetes treatment” (RSC Med Chem, 2024)

Assays:
[1] = target: T1, G-protein coupled bile acid receptor 1 (Homo sapiens, UniProt Q8TDU6); assay: Agonist activity at TGR5 (unknown origin) by TR-FRET assay; assay type: functional
T1 sequence (Q8TDU6 whole entry): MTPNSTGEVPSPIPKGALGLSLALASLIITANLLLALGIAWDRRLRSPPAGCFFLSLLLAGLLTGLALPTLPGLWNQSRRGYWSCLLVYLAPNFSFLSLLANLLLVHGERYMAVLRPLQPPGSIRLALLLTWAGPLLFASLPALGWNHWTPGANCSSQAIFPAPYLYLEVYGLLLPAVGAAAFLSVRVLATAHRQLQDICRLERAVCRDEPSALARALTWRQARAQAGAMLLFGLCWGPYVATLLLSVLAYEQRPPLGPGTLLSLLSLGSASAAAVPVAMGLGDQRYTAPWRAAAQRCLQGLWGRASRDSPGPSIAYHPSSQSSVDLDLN

[2] = target: T1, G-protein coupled bile acid receptor 1; assay: Agonist activity at TGR5 (unknown origin) expressed in HEK293T cells assessed as cAMP level by TR-FRET analysis; assay type: functional, cell-based
[3] = target: T1, G-protein coupled bile acid receptor 1; assay: Agonist activity at human TGR5 expressed in HEK293 cells; assay type: functional, cell-based
[4] = target: T1, G-protein coupled bile acid receptor 1; assay: Agonist activity at human TGR5; assay type: functional

| EC50 [1] [nM] | Compound | further results |
| --- | --- | --- |
| 10 | O=C(c1cccnc1Oc1cc(Cl)ccc1Cl)N1CCN(C2CC2)c2ccccc21 |  |
|  | COc1ccc(C(C)(C)c2cn(-c3ccc(F)cc3)c(SCc3c(F)cccc3Cl)n2)cc1OC | EC50 [2]: 25 nM |
| 50 | O=C(c1cccnc1Oc1cc(Cl)ccc1Cl)N1CCCc2ccc(F)cc21 |  |
| 50 | O=C(c1cccnc1Oc1cc(Cl)ccc1Cl)N1CCCc2cc(F)c(F)cc21 |  |
|  | Fc1cccc(F)c1-c1ccncc1CN1C(c2ccco2)=NOC1c1cc(C(F)(F)F)cc(C(F)(F)F)c1Cl (configuration not stated) | EC50 [3]: 15 nM |
|  | COc1ccc(S(=O)(=O)N2CCN(S(=O)(=O)c3ccc(OC)c(OC)c3)CC2)cc1OC | EC50 [4]: 1300 nM |
| 20 | O=C(c1cccnc1Oc1cc(Cl)ccc1Cl)N1CCCc2cc(F)ccc21 |  |
